Results taken from paper PMC12362587, “Untargeted Diversity-Oriented Synthesis for the Discovery of New Antitumor Agents: An Integrated Approach of Inverse Virtual Screening, Bioinformatics, and Omics for Target Deconvolution” (Journal of Medicinal Chemistry, 2025).

Assays:
[1] = system: MCF7; assay: MTT cell viability assay; assay type: cell-based; settings: Homo sapiens, 24 h, compounds 0.01–40 μM, read-out: In Vitro Cytotoxicity, EC50 ± SD, MCF7
From the text: (§1) Initially, we phenotypically screened the synthesized compounds over a panel of tumor cell lines composed of HEPG2, A375, SHSY5Y, MCF7, and A549 derived from liver tumor, melanoma, neuroblastoma, breast cancer, and lung adenocarcinoma, respectively. We also considered the HaCaT cell line, coming from keratinocytes, as a healthy control line. As reference, cytotoxic chemotherapeutic agent 5-fluorouracil (5-FU) has been used. The results obtained performing the MTT (3-(4,5-dimethylthiazolyl-2)-2,5-diphenyltetrazolium bromide) assay are summarized in Table .
(§2) The human neuroblastoma SHSY5Y, melanoma A375, human breast cancer MCF7, nonsmall lung cancer A549, and human epidermal keratinocyte HaCaT cell lines were obtained from ATCC and were grown in Dulbecco’s Modified Eagle Medium (DMEM) supplemented with 10% (v/v) FBS, 2 mM L-glutamine, 100 U/mL penicillin, and 0.1 mg/mL streptomycin.
(§3) Cell viability was established by measuring mitochondrial metabolic activity with MTT. In brief, HEPG2 (1 × 10^4 cells/well), A375 (2 × 10^3 cells/well), HaCaT (3 × 10^3 cells/well), A549 (3 × 10^3 cells/well), SHSY5Y (2 × 10^4 cells/well), and MCF 7 (5 × 10^3 cells/well) were plated into 96-well plates for 24 h, then the compounds (0.01–40 μM) were added. After 24h, cells were replaced with a fresh medium containing 0.5 mg/mL MTT. Cells were incubated 1–3 h at 37 °C, then the medium was discarded, and formazan blue crystals in the cells were dissolved in 100 μL per well of a solution containing isopropanol/HCl 0.1 M. The absorbance was measured at 570 nm using a microplate reader (Multiskan Go, Thermo Scientific, Waltham, MA, USA). Cell viability was expressed as a percentage relative to the untreated cells cultured in medium with 0.1% DMSO and set to 100%, whereas 10% DMSO was used as positive control and set to 0% of viability. The EC50 values were calculated using GraphPad Prism 8.0 software by nonlinear regression of dose–response inhibition.

[2] = system: A549; assay: MTT cell viability assay; assay type: cell-based; settings: Homo sapiens, 24 h, compounds 0.01–40 μM, read-out: In Vitro Cytotoxicity, EC50 ± SD, A549
From the text: as §1, §2, §3

[3] = system: A375; assay: MTT cell viability assay; assay type: cell-based; settings: Homo sapiens, A-375, 24 h, compounds 0.01–40 μM, read-out: In Vitro Cytotoxicity, EC50 ± SD, A375
From the text: as §1, §2, §3

[4] = system: SHSY5Y; assay: MTT cell viability assay; assay type: cell-based; settings: Homo sapiens, SH-SY5Y, 24 h, compounds 0.01–40 μM, read-out: In Vitro Cytotoxicity, EC50 ± SD, SHSY5Y
From the text: as §1, §2, §3

[5] = MTT cell viability assay; assay type: cell-based, human; settings: human, HaCaT keratinocyte cells (healthy control line), 24 h, compounds 0.01–40 μM, healthy control line, read-out: In Vitro Cytotoxicity, EC50 ± SD, HaCaT
From the text: as §1, §2, §3

[6] = system: HEPG2; assay: MTT cell viability assay; assay type: cell-based; settings: Homo sapiens, 24 h, compounds 0.01–40 μM, read-out: In Vitro Cytotoxicity, EC50 ± SD, HEPG2
From the text: as §1
The human hepatoma HEPG2 cell line was obtained from American Type Culture Collection (ATCC, Rockville, MD, USA). Cells were grown in Eagle’s Minimum Essential Medium (EMEM) supplemented with 10% (v/v) fetal bovine serum (FBS), 2 mM L-glutamine, 1% (v/v) nonessential amino acids, 100 U/mL penicillin, and 0.1 mg/mL streptomycin.
as §3

[7] = system: HaCaT; assay: MTT cell viability assay; assay type: cell-based, human; settings: in words
From the text: as §1, §2, §3

[8] = system: cancer cell lines (HEPG2, A375, SHSY5Y, MCF7, A549); assay: MTT cytotoxicity screen over panel of tumor cell lines; assay type: cell-based, human; settings: in words
From the text: as §1, §3

| Compound | EC50 [1] [µM] | EC50 [2] [µM] | EC50 [3] [µM] | EC50 [4] [µM] | EC50 at 24 h [5] [µM] | EC50 [6] [µM] | cytotoxicity effect over the HaCaT cell lines [7] | selectivity, tumor cell lines versus healthy line [8] | cytotoxic activity over the cancer cell lines [8] |
| --- | --- | --- | --- | --- | --- | --- | --- | --- | --- |
| O=c1[nH]cc(F)c(=O)[nH]1 [Compound 5-FU, 5-fluorouracil, reference compound] | 0.023 ± 0.009 | 0.047 ± 0.02 | 0.032 ± 0.011 | 0.072 ± 0.026 | 0.481 ± 0.059 | 0.056 ± 0.021 |  |  |  |
| CC(C)C[C@@H](C(=O)NCc1ccccc1)N1Cc2ccccc2OC1=O [Compound 7, (S)-N-Benzyl-4-methyl-2-(2-oxo-2H-benzo[e][1,3]oxazin-3(4H)-yl)pentanamide] | 20.2 ± 3.57 | > 40 | 13.7 ± 1.4 | 11.5 ± 2.05 | 38.4 ± 4.54 | 35.6 ± 3.22 | exhibited cytotoxicity effect |  |  |
| CC(C)(C)CNC(=O)[C@H](Cc1ccccc1)N1Cc2ccccc2OC1=O [Compound 8, (S)-N-Neopentyl-2-(2-oxo-2H-benzo[e][1,3]oxazin-3(4H)-yl)-3-phenylpropanamide] | 13.8 ± 2.28 | 15 ± 2.84 | 17.5 ± 3.22 | > 40 | 34.8 ± 3.79 | 21.4 ± 4.94 | exhibited cytotoxicity effect |  |  |
| CC(C)COC(=O)[C@H](Cc1ccccc1)n1c(=O)[nH]c2ccccc2c1=O [Compound 22, Isobutyl (S)-2-(2,4-Dioxo-1,4-dihydroquinazolin-3(2H)-yl)-3-phenylpropanoate] | 11.2 ± 3.14 | 36.3 ± 5.72 | 7.12 ± 2.54 | 30.4 ± 3.92 | 27 ± 4.09 | 4.28 ± 2.04 |  |  |  |
| CC(C)C[C@@H](C(=O)OCc1ccccc1)n1c(=O)[nH]c2ccccc2c1=O [Compound 23, Benzyl (S)-2-(2,4-Dioxo-1,4-dihydroquinazolin-3(2H)-yl)-4-methylpentanoate] | 12.2 ± 2.64 | 4.12 ± 1.89 | 3.88 ± 1.64 | 3.5 ± 1.41 | 10.2 ± 1.84 | 1.7 ± 1.05 |  | lack of selectivity |  |
| O=C1N[C@@H](Cc2ccccc2)C(=O)N(Cc2ccc(C(F)(F)F)cc2)c2ccccc21 [Compound 28, (S)-3-Benzyl-1-(4-(trifluoromethyl)benzyl)-3,4-dihydro-1H-benzo[e][1,4]diazepine-2,5-dione] | 11.7 ± 3.12 | 8.8 ± 1.37 | 13 ± 2.1 | 10.7 ± 1.26 | 26.9 ± 4.4 | 11.1 ± 2.25 |  | lack of selectivity |  |
| CC(C)C[C@@H]1NC(=O)c2ccccc2N(Cc2ccc(C(F)(F)F)cc2)C1=O [Compound 29, (S)-3-Isobutyl-1-(4-(trifluoromethyl)benzyl)-3,4-dihydro-1H-benzo[e][1,4]diazepine-2,5-dione] | > 40 | > 40 | 29.4 ± 4.43 | > 40 | > 40 | 25.8 ± 2.74 |  |  |  |
| O=C1[C@H](Cc2ccccc2)N(Cc2ccc(C(F)(F)F)cc2)C(=O)c2ccccc2N1Cc1ccc(C(F)(F)F)cc1 [Compound 30, (S)-3-Benzyl-1,4-bis(4-(trifluoromethyl)benzyl)-3,4-dihydro-1H-benzo[e][1,4]diazepine-2,5-dione] | 13.8 ± 3.11 | > 40 | 7.44 ± 2.12 | 37.3 ± 4.45 | > 40 | 5.06 ± 1.73 |  |  |  |
| CC(C)C[C@H]1CNc2ccccc2C(=O)N1Cc1ccc(C(F)(F)F)cc1 [Compound 33, (S)-3-Isobutyl-4-(4-(trifluoromethyl)benzyl)-1,2,3,4-tetrahydro-5H-benzo[e][1,4]diazepin-5-one] | 13.9 ± 2.78 | 10.4 ± 1.01 | 2.51 ± 1.02 | 13.5 ± 2.22 | 9.62 ± 1.12 | 2.69 ± 0.85 |  | lack of selectivity |  |
| CC(C)C[C@H]1CN(Cc2ccc(C(F)(F)F)cc2)c2ccccc2C(=O)N1Cc1ccc(C(F)(F)F)cc1 [Compound 34, (S)-3-Isobutyl-1,4-bis(4-(trifluoromethyl)benzyl)-1,2,3,4-tetrahydro-5H-benzo[e][1,4]diazepin-5-one] | > 40 | 17.6 ± 3.65 | 5.14 ± 2.15 | > 40 | > 40 | 11.5 ± 2.16 |  |  |  |
| CC(C)CN1Cc2ccccc2NC[C@@H]1Cc1ccccc1 [Compound 37, (S)-3-Benzyl-4-isobutyl-2,3,4,5-tetrahydro-1H-benzo[e][1,4]diazepine] | > 40 | > 40 | 8.92 ± 2.72 | > 40 | > 40 | > 40 |  |  |  |
| CC(C)C[C@H]1CN(Cc2ccc(C(F)(F)F)cc2)c2ccccc2CN1Cc1ccc(C(F)(F)F)cc1 [Compound 38, (S)-3-Isobutyl-1,4-bis(4-(trifluoromethyl)benzyl)-2,3,4,5-tetrahydro-1H-benzo[e][1,4]diazepine] | > 40 | 37.9 ± 1.64 | 23.1 ± 3.1 | > 40 | > 40 | 15.4 ± 1.71 |  |  |  |
| CC(C)C[C@@H]1NC(=O)[C@H](Cc2ccccc2)N(Cc2ccccc2)C1=O [Compound 41, (3S,6S)-1,6-Dibenzyl-3-isobutylpiperazine-2,5-dione] | > 40 | > 40 | > 40 | > 40 | > 40 | > 40 |  |  | no activity |
| CC(C)CN1c2ccccc2NC(=O)[C@@H]1Cc1ccccc1 [Compound 48, (S)-3-Benzyl-4-isobutyl-3,4-dihydroquinoxalin-2(1H)-one] | > 40 | 35.5 ± 5.48 | > 40 | > 40 | > 40 | > 40 |  |  | no activity |
| CC(C)C[C@H]1C(=O)Nc2ccccc2N1Cc1ccccc1 [Compound 49, (S)-4-Benzyl-3-isobutyl-3,4-dihydroquinoxalin-2(1H)-one] | > 40 | > 40 | > 40 | > 40 | > 40 | > 40 |  |  | no activity |
| CC(C)C[C@@H]1NC(=O)OCc2ccccc2NC1=O [Compound 52, (S)-3-Isobutyl-1,3,4,7-tetrahydrobenzo[g][1,3,6]oxadiazonine-2,5-dione] | > 40 | > 40 | > 40 | > 40 | > 40 | > 40 |  |  | no activity |
| CC(C)COC(=O)[C@H](Cc1ccccc1)N1Cc2ccccc2NC1=O [Compound 64, Isobutyl (S)-2-(2-Oxo-1,4-dihydroquinazolin-3(2H)-yl)-3-phenylpropanoate] | 9.55 ± 1.05 | 32.3 ± 5.76 | 8.64 ± 1.66 | 28.2 ± 3.2 | 24.4 ± 4.51 | 7.97 ± 2.45 |  | lack of selectivity |  |
